Test results reported in ChEMBL document CHEMBL3991601, “The target landscape of clinical kinase drugs” (Science, 2017).
Activity calls are given as the source filed them.

How the values were obtained:
[1] = target: T1, Acyl-CoA dehydrogenase family member 10 (Homo sapiens, UniProt Q6JQN1)
T1 sequence (Q6JQN1 whole entry): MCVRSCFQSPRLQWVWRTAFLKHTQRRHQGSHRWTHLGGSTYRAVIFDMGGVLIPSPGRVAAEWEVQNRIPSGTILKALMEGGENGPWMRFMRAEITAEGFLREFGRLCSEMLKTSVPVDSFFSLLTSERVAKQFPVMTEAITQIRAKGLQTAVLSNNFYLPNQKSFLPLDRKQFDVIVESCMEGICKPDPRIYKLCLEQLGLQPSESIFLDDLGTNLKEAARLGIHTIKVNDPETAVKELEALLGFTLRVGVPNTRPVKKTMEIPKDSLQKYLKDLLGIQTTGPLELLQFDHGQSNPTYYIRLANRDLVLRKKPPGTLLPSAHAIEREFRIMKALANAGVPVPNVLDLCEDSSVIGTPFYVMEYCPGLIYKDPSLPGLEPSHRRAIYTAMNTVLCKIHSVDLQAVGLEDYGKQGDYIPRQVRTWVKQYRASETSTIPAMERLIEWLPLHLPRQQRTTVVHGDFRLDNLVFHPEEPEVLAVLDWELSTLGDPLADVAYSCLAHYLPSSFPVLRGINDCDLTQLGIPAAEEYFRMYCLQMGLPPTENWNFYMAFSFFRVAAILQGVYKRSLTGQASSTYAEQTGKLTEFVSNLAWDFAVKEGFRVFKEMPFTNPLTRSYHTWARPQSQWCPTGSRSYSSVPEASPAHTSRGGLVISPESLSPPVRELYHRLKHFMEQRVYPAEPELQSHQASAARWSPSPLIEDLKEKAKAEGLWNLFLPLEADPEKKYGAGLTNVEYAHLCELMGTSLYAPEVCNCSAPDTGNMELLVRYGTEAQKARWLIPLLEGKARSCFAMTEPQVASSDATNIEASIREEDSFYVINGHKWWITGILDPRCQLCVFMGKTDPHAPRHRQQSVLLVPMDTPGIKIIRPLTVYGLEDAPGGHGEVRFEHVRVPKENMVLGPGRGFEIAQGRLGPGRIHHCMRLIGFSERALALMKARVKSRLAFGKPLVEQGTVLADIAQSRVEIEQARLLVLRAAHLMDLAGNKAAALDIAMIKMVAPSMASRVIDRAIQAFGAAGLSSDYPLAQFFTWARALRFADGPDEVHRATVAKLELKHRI

[2] = target: Chromodomain-helicase-DNA-binding protein 4 (Homo sapiens, UniProt Q14839)
[3] = target: Ribosomal protein S6 kinase alpha-5 (Homo sapiens, UniProt O75582)
[4] = target: T2, Serine/threonine-protein kinase D3 (Homo sapiens, UniProt O94806)
T2 sequence (O94806 whole entry): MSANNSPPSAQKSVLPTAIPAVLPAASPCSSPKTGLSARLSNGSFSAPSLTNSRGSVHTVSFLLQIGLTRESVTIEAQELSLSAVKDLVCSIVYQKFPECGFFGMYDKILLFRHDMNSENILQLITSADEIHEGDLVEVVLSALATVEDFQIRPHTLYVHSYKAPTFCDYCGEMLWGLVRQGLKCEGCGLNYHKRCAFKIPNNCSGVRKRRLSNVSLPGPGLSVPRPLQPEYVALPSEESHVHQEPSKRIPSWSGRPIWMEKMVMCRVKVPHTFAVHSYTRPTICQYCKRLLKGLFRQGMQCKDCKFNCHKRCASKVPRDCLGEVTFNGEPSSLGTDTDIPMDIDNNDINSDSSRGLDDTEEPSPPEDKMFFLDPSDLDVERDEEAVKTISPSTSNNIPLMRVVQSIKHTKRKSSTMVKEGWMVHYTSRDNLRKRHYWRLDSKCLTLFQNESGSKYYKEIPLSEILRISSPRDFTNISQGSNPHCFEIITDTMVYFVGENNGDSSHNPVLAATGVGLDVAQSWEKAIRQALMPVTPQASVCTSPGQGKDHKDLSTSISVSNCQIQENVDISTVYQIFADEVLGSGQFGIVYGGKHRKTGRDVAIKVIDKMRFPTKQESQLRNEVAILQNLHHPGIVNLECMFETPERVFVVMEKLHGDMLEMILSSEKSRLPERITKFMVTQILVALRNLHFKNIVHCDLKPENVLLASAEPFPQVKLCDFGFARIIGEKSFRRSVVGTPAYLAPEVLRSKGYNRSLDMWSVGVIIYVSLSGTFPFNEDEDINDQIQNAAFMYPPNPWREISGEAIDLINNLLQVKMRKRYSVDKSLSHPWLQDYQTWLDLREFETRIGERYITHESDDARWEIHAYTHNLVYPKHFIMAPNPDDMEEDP

[5] = target: Tyrosine-protein kinase JAK1 (Homo sapiens, UniProt P23458)
[6] = target: GTP-binding nuclear protein Ran (Homo sapiens, UniProt P62826)
[7] = target: Guanine nucleotide-binding protein G(i) subunit alpha-2 (Homo sapiens, UniProt P04899)
Note: in the data inactive means no Kd found up to 30 µM.

Chain of Ribosomal protein S6 kinase alpha-5 (O75582 whole entry): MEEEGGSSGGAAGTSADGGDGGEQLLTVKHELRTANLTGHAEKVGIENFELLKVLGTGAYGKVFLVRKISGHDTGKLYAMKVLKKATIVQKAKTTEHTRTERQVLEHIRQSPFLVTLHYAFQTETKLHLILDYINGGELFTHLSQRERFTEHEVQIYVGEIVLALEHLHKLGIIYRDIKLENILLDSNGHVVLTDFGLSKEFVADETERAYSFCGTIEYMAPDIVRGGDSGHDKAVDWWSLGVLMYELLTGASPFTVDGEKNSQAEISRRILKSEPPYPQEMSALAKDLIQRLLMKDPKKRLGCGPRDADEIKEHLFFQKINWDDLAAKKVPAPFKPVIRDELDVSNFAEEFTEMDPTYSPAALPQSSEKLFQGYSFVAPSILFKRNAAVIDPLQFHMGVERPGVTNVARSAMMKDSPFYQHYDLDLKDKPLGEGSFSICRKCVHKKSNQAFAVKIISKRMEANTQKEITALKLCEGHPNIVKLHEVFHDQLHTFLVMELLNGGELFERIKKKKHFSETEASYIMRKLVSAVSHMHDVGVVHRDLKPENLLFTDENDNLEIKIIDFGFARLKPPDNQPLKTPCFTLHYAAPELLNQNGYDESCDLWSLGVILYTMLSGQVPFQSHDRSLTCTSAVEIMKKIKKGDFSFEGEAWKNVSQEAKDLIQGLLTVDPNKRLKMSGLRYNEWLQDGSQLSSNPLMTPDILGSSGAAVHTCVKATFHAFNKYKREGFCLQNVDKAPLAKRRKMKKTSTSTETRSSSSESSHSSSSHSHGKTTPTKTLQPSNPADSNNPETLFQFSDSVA
Chain of Chromodomain-helicase-DNA-binding protein 4 (Q14839 whole entry): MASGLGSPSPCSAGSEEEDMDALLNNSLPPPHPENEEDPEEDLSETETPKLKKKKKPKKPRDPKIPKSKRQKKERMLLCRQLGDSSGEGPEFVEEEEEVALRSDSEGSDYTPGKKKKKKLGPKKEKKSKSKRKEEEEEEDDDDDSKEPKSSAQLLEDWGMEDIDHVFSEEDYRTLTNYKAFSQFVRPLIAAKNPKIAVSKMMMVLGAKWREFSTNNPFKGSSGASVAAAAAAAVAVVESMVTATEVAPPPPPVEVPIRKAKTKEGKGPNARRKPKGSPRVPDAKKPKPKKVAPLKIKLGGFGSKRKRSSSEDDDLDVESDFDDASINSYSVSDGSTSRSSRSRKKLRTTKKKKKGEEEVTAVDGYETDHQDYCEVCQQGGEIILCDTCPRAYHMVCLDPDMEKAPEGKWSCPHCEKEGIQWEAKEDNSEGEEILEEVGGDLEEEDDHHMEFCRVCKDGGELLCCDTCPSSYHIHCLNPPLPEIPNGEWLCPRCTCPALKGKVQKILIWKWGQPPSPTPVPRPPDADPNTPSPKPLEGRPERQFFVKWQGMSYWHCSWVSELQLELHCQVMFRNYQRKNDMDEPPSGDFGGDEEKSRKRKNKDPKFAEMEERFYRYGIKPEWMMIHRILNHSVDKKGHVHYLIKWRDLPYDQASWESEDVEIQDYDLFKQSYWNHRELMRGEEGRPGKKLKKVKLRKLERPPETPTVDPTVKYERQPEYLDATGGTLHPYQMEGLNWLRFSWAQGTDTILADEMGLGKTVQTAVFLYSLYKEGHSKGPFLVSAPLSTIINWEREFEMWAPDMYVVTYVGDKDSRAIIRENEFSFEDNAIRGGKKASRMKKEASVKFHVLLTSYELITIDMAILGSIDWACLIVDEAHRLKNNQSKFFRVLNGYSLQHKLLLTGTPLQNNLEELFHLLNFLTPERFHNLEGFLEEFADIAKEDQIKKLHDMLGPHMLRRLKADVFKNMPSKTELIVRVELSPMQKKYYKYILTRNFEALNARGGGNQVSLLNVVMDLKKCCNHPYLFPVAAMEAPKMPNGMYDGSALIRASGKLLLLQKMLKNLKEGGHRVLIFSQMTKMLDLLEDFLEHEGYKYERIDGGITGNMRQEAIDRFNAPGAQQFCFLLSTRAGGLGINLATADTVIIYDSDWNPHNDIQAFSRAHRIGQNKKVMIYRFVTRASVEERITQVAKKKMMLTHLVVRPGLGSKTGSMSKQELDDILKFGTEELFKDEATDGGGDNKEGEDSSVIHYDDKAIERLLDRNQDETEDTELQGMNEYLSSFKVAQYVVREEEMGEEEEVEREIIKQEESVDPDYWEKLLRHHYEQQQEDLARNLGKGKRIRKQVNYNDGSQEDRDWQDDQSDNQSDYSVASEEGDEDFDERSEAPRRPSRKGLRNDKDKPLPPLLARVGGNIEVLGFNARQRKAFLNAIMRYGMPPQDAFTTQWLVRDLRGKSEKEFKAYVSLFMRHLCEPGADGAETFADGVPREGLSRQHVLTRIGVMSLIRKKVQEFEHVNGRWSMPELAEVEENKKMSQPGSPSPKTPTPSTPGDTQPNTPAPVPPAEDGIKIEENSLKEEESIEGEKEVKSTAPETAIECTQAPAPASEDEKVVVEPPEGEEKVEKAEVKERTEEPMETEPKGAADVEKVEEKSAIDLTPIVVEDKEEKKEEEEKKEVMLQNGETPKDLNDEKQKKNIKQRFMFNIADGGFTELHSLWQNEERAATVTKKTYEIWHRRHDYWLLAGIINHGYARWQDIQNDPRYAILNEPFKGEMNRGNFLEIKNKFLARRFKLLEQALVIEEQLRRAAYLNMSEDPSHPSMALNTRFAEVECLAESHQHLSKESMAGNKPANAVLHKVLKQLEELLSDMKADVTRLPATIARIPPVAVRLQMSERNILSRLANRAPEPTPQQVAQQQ
Chain of Tyrosine-protein kinase JAK1 (P23458 whole entry): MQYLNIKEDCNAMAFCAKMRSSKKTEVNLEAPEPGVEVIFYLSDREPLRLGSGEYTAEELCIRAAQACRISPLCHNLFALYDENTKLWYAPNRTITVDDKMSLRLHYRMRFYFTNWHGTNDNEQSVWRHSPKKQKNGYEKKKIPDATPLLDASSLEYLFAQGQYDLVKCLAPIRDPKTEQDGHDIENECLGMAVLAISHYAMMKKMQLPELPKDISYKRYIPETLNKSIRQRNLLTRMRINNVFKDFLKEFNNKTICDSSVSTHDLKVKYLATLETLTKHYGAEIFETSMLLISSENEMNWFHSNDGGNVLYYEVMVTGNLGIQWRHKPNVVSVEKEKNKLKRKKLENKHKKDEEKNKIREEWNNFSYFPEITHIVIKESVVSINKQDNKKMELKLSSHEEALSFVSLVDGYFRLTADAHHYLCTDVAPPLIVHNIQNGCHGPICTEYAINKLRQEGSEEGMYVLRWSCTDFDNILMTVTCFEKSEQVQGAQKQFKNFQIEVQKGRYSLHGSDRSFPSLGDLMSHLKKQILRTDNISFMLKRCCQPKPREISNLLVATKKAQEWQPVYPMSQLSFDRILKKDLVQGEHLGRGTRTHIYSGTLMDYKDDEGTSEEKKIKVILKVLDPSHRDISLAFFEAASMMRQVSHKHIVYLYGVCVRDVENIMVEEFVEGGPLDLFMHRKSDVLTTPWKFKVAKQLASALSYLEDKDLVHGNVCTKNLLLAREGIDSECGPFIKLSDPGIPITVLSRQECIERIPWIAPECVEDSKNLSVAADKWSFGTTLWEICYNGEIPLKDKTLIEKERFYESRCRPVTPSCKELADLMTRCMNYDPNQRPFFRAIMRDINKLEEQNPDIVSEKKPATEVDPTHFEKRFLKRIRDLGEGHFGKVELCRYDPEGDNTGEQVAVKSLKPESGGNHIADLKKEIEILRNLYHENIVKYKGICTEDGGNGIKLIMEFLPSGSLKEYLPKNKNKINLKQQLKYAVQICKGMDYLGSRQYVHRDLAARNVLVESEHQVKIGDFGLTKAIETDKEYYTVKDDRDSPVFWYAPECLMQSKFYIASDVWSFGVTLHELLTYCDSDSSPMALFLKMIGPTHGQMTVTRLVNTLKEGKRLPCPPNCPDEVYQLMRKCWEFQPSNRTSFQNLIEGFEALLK
Chain of Guanine nucleotide-binding protein G(i) subunit alpha-2 (P04899 whole entry): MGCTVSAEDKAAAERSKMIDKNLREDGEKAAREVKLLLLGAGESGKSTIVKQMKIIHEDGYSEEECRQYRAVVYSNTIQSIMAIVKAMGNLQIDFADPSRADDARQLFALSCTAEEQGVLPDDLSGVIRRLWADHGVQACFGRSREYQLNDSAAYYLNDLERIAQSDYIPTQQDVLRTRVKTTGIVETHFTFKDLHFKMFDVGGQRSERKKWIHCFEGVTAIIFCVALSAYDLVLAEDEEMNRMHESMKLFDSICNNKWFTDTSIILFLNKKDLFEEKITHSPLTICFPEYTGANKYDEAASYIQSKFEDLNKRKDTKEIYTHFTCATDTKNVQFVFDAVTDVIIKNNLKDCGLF

| Kd [1] | Kd [2] | Kd [3] | Kd [4] | Kd [5] | Kd [6] | Kd [7] | Structure (SMILES) |
| --- | --- | --- | --- | --- | --- | --- | --- |
| > 30 µM (inactive) | > 30 µM (inactive) | > 30 µM (inactive) | > 30 µM (inactive) | > 30 µM (inactive) | > 30 µM (inactive) | > 30 µM (inactive) | CO[C@H]1C[C@@H]2CC[C@@H](C)[C@@](O)(O2)C(=O)C(=O)N2CCCC[C@H]2C(=O)O[C@H]([C@H](C)C[C@@H]2CC[C@@H](OP(C)(C)=O)[C@H](OC)C2)CC(=O)[C@H](C)/C=C(\C)[C@@H](O)[C@@H](OC)C(=O)[C@H](C)C[C@H](C)/C=C/C=C/C=C/1C [RIDAFOROLIMUS] |
| > 30 µM (inactive) | > 30 µM (inactive) | > 30 µM (inactive) | > 30 µM (inactive) | > 30 µM (inactive) | > 30 µM (inactive) | > 30 µM (inactive) | O=c1[nH]ccc2cc(OC3CCNCC3)ccc12 [SAR-407899 FREE BASE] |
| > 30 µM (inactive) | > 30 µM (inactive) | > 30 µM (inactive) | > 30 µM (inactive) | > 30 µM (inactive) | > 30 µM (inactive) | > 30 µM (inactive) | CO[C@H]1C[C@@H]2CC[C@@H](C)[C@@](O)(O2)C(=O)C(=O)N2CCCC[C@H]2C(=O)O[C@H]([C@H](C)C[C@@H]2CC[C@@H](OC(=O)C(C)(CO)CO)[C@H](OC)C2)CC(=O)[C@H](C)/C=C(\C)[C@@H](O)[C@@H](OC)C(=O)[C@H](C)C[C@H](C)/C=C/C=C/C=C/1C [TEMSIROLIMUS] |
| > 30 µM (inactive) | > 30 µM (inactive) | > 30 µM (inactive) | > 30 µM (inactive) | > 30 µM (inactive) | > 30 µM (inactive) | > 30 µM (inactive) | COc1cc2c(Nc3ccc(Cl)c(Cl)c3F)ncnc2cc1OC[C@@H]1C[C@@H]2CN(C)C[C@@H]2C1 [TESEVATINIB] |
| > 30 µM (inactive) | > 30 µM (inactive) | > 30 µM (inactive) | > 30 µM (inactive) | > 30 µM (inactive) | > 30 µM (inactive) | > 30 µM (inactive) | O=C1NC(=O)[C@@H](c2cn3c4c(cccc24)CCC3)[C@@H]1c1c[nH]c2ccccc12 [TIVANTINIB] |
| > 30 µM (inactive) | > 30 µM (inactive) | > 30 µM (inactive) | > 30 µM (inactive) | > 30 µM (inactive) | > 30 µM (inactive) | > 30 µM (inactive) | C[C@@H](NC(=O)c1ncnc(N)c1Cl)c1ncc(C(=O)Nc2cc(C(F)(F)F)c(Cl)cn2)s1 [TOVORAFENIB] |

| Structure (SMILES) | Kd [1] | Kd [2] | Kd [3] | Kd [4] | Kd [5] | Kd [6] | Kd [7] |
| --- | --- | --- | --- | --- | --- | --- | --- |
| CN1CCN(CCOc2cc(OC3CCOCC3)c3c(Nc4c(Cl)ccc5c4OCO5)ncnc3c2)CC1 [SARACATINIB] | > 30 µM (inactive) | > 30 µM (inactive) | > 30 µM (inactive) | > 30 µM (inactive) | > 30 µM (inactive) | > 30 µM (inactive) | > 30 µM (inactive) |
